# Measurements as given in ChEMBL document CHEMBL1201862, “PubChem BioAssay data set” (2004).
# Active and inactive are the calls of the source.
# Experiments:
# Aminopeptidase N = target: T1, Aminopeptidase N (Plasmodium falciparum FcB1/Columbia, UniProt O96935); assay: malaria alanyl aminopeptidase activity blockers – biochemical, fluorogenic H-Leu-NHMec substrate, 1536-well (AID 1445); set-up: species or system Plasmodium falciparum 3D7, 3D7
# T1 sequence (O96935 whole entry): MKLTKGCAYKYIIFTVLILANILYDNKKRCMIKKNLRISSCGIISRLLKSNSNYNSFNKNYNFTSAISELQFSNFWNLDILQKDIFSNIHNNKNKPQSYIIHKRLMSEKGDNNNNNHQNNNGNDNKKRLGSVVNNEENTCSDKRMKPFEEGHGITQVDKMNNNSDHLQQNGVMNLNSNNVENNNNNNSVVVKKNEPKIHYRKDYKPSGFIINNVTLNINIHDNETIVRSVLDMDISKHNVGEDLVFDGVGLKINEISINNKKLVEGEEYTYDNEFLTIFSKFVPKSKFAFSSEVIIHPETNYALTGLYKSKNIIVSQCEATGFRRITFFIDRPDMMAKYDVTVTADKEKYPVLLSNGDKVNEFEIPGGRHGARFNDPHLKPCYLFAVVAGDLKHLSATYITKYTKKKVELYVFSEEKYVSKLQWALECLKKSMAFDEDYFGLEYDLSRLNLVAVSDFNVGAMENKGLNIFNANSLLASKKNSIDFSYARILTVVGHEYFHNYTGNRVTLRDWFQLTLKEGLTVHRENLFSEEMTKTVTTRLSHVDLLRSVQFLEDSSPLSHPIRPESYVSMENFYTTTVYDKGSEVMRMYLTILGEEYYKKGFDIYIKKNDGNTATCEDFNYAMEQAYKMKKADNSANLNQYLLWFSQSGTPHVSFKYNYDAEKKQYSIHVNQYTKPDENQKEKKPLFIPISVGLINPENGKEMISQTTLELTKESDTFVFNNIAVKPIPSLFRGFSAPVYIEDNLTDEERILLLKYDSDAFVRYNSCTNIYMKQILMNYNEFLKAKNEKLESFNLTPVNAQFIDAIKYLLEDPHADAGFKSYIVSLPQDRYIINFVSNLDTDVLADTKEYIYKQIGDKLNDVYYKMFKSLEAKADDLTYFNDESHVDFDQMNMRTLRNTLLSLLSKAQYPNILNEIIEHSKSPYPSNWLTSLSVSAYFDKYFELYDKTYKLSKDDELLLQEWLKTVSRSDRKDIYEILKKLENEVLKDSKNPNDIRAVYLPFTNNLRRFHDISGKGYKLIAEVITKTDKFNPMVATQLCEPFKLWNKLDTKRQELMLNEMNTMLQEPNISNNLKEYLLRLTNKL
# HEK293 [1] = assay: inhibition of NOD1-driven NF-kB reporter – cell-based, luminescence, uHTS, primary screen (AID 1578); type: functional; settings: Homo sapiens
# HEK293 [2] = assay: cells; type: functional, cell-based; settings: Homo sapiens
# HEK293 [3] = assay: cells; type: functional, cell-based; settings: Homo sapiens; remark: listed apart in the source
# HEK293 [4] = assay: NOD2 signaling inhibitors in MDP-stimulated cells, cell-based, uHTS, luminescence (AID 2001); type: functional; settings: Homo sapiens
# [5] = reduction of Shn3 3'UTR-driven luciferase in osteoblasts – cell-based, Clone20 osteoblasts, firefly luciferase, cherry-picked, dose response (AID 624132); type: functional;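 further: firefly luciferase luminescence from reporter carrying the Shn3 3'UTR in osteoblasts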
# [6] = loss of viability in HepG2 cells – cell-based, CellTiter-Glo, cherry-picked, cytotoxicity control for Shn3 inhibitor project, dose response (AID 624134); type: functional
# [7] = non-specific 3'UTR reporter inhibition in Clone20-Shn3RL – cell-based, Renilla luciferase, cherry-picked, counter-screen for Shn3 inhibitor project, dose response (AID 624133); type: functional
# [8] = target: G-protein coupled receptor 55 (Homo sapiens, UniProt Q9Y2T6); assay: selective activators of receptor GPR55 – imaging, U2OS cells, beta-arrestin-GFP redistribution, primary screen (AID 1961); type: functional
# [9] = A Cell Based Secondary Assay To Explore Cytotoxicity of Compounds that Sensitize Mycobacterium Tuberculosis to Beta-Lactam Antibiotics.; type: functional
# [10] = HEK-293T cell viability reduction – luminescence, B-cell screen hits, cytotoxicity control for BCR NF-kB inhibitor project, dose response (AID 489021); type: functional, cell-based;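 further: HEK-293T cells carrying an NF-kB luciferase reporter; cells exposed to compound for about 14 hours before viability readout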
# [11] = test system: Streptococcus sp. 'group A'; assay: Streptococcus pyogenes SK(-)GAS viability under kanamycin – luminescence, BacTiterGlo, confirmation, counter-screen for streptokinase expression inhibitor project, dose response (AID 1900); type: functional, organism-based
# Streptokinase A = target: T2, Streptokinase A (Streptococcus pyogenes serotype M1, UniProt P10520); assay: viability-normalized secreted streptokinase activity reduction – plasminogen activation absorbance, OD405, dose response (AID 1914); type: functional, Streptococcus pyogenes M1 GAS;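 further: secreted streptokinase activity via plasminogen activation per viability signal from cell pellet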
# T2 sequence (P10520 whole entry): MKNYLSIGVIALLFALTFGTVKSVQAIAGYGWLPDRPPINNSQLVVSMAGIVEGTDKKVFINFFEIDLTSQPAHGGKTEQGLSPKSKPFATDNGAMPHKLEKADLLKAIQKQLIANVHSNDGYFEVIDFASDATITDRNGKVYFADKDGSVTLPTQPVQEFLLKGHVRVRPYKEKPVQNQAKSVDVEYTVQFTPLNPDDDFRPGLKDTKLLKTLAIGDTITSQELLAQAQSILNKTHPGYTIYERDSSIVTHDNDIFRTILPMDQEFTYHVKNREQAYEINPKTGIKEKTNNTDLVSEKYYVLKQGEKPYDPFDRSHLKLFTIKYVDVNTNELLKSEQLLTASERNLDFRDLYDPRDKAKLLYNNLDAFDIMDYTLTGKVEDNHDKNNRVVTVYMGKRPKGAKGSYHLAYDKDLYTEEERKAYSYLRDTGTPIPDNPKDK
# Streptococcus = assay: GAS UMAA2166 growth inhibition – luminescence, BacTiterGlo, counter-screen for streptokinase expression inhibitor project, dose response (AID 1915); type: functional, organism-based;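 further: potency for reduction of bacterial viability or growth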
# [12] = Luminescence Cell-Based Dose Retest to Confirm Inhibitors of Cancer Stem Cells. [Related pubchem assays (depositor defined):AID2717, AID2721]; type: functional; settings: Homo sapiens
# INS1 = assay: INS-1E survival protection against cytokine death – cell-based, luminescence, retest, dose response (AID 449756); type: functional; settings: Rattus norvegicus;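 further: cell death triggered by IL-1 beta plus TNF-alpha plus IFN-gamma mixture; protective hits raise ATP signal compared with cytokine alone wells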
# Cytochrome P450 2C19 = Cytochrome P450 2C19 (Homo sapiens, UniProt P33261); assay: Cytochrome panel assay with activity outcomes. Panel member name: p450-cyp2c19 Compounds with AC50 equal or less than 10 uM are considered active; type: functional; settings: read-out: AC50
# Cytochrome P450 2C9 = Cytochrome P450 2C9 (Homo sapiens, UniProt P11712)
# Cytochrome P450 2D6 [13] = target: T3, Cytochrome P450 2D6 (Homo sapiens, UniProt P10635);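 further: CYP2D6 member of a cytochrome P450 panel assay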
# [14] = HEK-293T viability loss after treatment – luminescence, T-cell screen hits, cytotoxicity control for TCR NF-kB inhibitor project, dose response (AID 489026); type: functional, cell-based;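 further: cells exposed to compound about 14 hours before the viability readout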
# Fatty acid synthase [15] = target: T4, Fatty acid synthase (Homo sapiens, UniProt P49327); assay: inhibition of human FAS-TE enzyme activity – biochemical, endpoint fluorescence intensity, uHTS hits, dose response (AID 624327); type: functional;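 further: fluorescence from hydrolysis of an O-methyl fluorescein acyl ester substrate by the enzyme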
# Fatty acid synthase [16] = target: T4, Fatty acid synthase; assay: inhibition of human FAS-TE enzyme activity – biochemical, kinetic fluorescence intensity, dose response (AID 624326); type: functional;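 further: rate of fluorescence rise from hydrolysis of a fluorogenic O-methyl fluorescein ester substrate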
# Cytochrome P450 2D6 [17] = target: T3, Cytochrome P450 2D6; remark: listed apart in the source
# [18] = Trypanosoma cruzi growth suppression in host cells – NIH3T3 host cells, beta-gal luminescence, confirmation (AID 2044); type: functional, cell-based;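 further: intracellular parasites grown in NIH/3T3 mouse fibroblasts as host cells; luminescent beta-galactosidase reporter signal from transgenic T. cruzi replicating inside host cells; inhibitors lower the luminescence signal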
# [19] = NIH3T3 cell viability loss – ATP luminescence, mouse fibroblasts, counter-screen, dose response (AID 2010); type: functional, cell-based;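 further: cells exposed to compound for about 90 hours before reading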
# [20] = THP-1 cell cytotoxicity, dose response, cytotoxicity control for non-replicating M. tuberculosis project (AID 489025); type: functional
# cells = type: functional
# [21] = target: T5, DNA repair protein RAD52 homolog (Homo sapiens, UniProt P43351); type: functional, biochemical
# T5 sequence (P43351 whole entry): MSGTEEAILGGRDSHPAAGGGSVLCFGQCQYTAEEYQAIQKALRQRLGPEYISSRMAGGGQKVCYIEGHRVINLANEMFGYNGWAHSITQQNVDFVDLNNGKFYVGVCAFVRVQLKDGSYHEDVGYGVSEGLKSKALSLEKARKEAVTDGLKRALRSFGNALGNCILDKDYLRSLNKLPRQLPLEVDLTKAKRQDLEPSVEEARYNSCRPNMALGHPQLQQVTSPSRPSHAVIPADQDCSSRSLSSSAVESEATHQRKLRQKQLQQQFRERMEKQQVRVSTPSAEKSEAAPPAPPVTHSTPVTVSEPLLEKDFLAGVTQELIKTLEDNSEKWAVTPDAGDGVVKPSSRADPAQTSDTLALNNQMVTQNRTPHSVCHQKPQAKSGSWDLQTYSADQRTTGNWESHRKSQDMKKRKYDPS
# [22] = target: T6, High affinity choline transporter 1 (Homo sapiens, UniProt Q9GZV3); assay: human choline transporter blockers, potency – cell-based, 5-point CRC, membrane potential dye, dose response (AID 504840); type: functional
# T6 sequence (Q9GZV3 whole entry): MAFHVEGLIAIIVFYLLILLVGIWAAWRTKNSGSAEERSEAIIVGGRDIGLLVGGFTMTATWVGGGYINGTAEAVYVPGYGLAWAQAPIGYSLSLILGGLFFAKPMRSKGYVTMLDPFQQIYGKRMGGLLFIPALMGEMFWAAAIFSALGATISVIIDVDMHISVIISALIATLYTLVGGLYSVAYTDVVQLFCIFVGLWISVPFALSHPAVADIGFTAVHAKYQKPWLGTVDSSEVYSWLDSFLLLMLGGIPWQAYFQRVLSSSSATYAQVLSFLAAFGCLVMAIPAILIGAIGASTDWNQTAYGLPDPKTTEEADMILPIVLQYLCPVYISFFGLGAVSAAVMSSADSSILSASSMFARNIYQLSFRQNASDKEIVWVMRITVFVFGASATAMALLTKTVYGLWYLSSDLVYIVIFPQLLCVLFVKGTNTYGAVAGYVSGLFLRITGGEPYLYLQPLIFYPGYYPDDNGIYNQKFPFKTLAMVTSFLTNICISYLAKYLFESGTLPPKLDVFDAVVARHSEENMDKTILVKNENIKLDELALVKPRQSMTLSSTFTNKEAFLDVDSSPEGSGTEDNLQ
# T3 sequence (P10635 whole entry): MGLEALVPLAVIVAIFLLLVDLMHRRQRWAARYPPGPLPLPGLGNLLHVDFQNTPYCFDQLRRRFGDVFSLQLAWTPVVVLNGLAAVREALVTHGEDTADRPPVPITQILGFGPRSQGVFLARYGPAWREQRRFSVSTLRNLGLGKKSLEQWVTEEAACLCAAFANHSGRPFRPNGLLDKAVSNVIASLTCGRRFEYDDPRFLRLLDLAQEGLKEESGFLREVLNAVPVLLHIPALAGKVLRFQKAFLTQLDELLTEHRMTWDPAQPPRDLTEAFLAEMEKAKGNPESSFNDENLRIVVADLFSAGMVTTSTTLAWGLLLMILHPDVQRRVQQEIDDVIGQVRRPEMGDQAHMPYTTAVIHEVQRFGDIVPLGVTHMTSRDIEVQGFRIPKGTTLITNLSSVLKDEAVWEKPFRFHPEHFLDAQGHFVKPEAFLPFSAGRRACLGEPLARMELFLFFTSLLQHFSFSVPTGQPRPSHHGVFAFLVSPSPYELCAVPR
# Sequence of Cytochrome P450 2C9 (P11712 whole entry): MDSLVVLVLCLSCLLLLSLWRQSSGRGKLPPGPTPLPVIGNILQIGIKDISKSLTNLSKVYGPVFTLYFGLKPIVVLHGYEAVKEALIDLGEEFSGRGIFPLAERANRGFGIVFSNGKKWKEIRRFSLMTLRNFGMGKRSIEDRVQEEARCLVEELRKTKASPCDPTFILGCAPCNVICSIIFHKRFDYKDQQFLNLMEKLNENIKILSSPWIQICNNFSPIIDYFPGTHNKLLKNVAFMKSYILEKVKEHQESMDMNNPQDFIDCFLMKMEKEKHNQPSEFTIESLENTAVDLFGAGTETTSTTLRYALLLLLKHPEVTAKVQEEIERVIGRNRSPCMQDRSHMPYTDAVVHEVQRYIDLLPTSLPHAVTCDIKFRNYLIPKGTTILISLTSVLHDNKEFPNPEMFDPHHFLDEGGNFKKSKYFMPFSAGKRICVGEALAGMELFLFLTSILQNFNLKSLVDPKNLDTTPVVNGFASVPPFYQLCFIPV
# T4 sequence (P49327 whole entry): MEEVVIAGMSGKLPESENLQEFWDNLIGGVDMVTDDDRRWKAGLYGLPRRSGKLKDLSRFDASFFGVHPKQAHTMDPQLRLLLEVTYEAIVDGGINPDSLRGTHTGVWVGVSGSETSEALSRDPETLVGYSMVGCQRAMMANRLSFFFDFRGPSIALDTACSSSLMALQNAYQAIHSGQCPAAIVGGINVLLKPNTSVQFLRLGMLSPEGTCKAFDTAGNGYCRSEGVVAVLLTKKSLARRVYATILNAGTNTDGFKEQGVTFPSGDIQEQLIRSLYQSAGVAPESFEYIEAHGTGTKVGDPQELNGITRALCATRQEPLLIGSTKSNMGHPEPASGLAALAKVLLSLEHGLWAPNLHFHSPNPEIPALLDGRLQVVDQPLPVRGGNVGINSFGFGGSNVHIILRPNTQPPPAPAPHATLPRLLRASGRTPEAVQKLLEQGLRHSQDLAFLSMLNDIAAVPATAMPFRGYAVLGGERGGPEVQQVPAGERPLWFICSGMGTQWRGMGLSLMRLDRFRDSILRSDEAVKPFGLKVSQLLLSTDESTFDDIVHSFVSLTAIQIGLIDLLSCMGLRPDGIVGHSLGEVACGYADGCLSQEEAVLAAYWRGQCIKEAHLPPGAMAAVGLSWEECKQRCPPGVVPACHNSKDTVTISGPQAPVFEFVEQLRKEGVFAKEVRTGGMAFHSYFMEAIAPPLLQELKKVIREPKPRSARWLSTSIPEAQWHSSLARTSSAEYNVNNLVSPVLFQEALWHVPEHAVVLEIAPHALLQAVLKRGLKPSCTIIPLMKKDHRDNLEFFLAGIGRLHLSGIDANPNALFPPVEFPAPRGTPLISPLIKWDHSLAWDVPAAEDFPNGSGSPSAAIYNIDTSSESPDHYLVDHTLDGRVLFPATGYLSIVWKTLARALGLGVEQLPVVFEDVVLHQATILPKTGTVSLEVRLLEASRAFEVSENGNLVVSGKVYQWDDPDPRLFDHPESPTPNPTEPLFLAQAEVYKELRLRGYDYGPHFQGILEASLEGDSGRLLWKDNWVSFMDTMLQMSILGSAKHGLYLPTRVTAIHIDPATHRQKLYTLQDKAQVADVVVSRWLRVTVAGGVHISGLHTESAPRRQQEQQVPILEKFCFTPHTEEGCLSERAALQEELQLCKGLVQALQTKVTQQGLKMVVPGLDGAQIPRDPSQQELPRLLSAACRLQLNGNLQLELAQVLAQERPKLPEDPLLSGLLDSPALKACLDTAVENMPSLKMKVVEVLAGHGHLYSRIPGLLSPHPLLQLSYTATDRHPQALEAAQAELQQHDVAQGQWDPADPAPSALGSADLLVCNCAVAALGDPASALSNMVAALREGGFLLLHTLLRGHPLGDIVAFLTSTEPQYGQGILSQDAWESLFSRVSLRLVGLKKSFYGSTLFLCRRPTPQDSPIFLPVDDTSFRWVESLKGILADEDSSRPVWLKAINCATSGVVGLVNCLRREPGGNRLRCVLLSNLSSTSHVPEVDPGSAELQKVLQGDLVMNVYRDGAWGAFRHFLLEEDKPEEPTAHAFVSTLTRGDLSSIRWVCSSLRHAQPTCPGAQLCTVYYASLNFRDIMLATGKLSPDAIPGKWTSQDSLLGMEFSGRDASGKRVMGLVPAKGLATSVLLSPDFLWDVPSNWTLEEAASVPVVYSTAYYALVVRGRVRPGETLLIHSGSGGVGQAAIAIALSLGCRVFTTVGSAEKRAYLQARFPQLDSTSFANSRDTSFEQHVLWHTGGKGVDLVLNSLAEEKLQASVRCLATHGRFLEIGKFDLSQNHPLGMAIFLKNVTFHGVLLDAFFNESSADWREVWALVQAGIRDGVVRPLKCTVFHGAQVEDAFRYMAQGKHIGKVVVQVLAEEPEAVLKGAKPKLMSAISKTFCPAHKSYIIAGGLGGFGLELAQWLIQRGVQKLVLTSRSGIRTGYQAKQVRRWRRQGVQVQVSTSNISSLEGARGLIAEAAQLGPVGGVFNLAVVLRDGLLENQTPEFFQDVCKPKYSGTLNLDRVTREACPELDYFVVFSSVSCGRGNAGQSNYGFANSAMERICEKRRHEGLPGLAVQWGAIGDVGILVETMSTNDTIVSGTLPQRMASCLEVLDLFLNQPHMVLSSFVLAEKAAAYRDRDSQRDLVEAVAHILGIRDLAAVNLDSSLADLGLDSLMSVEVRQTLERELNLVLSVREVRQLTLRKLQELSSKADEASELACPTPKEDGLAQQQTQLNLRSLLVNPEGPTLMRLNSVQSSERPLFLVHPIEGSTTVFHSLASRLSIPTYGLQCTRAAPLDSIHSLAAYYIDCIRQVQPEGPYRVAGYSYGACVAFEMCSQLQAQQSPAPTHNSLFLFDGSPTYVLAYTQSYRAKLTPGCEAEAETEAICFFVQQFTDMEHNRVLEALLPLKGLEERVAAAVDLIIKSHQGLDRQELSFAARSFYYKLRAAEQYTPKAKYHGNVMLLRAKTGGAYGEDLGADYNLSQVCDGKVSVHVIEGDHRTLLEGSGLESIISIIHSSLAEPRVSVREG
# Sequence of G-protein coupled receptor 55 (Q9Y2T6 whole entry): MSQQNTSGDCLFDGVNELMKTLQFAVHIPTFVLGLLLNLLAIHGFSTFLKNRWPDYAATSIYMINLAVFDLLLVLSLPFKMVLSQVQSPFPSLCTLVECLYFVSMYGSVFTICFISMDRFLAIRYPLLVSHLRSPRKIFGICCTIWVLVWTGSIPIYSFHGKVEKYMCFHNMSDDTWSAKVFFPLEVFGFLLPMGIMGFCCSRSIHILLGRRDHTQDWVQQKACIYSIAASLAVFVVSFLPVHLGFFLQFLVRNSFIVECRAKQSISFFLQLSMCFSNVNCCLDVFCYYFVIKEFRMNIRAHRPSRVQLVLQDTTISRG
# Sequence of Cytochrome P450 2C19 (P33261 whole entry): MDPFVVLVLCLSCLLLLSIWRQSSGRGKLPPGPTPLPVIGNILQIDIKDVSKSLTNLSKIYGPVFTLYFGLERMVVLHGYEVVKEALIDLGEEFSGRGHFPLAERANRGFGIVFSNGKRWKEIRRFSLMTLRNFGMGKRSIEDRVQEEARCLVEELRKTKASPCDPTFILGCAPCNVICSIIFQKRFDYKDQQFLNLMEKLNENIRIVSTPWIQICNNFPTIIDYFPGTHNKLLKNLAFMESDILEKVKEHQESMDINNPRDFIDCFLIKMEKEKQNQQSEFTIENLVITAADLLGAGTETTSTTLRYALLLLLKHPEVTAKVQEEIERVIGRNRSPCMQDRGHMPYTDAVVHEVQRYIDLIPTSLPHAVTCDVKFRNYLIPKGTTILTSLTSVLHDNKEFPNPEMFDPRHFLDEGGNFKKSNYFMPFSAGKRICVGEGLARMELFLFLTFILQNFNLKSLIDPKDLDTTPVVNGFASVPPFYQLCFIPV
smiles,measurement,setting,value
Cc1ccccc1N(CC(=O)NC1CCCC1)C(=O)C[S+]([O-])CC(=O)Nc1ccc2c(c1)OCO2 (stereo unspecified),IC50,Aminopeptidase N,63.9 µM (active)
Cn1c(SCC(=O)N2CCCc3ccccc32)nc2ccccc2c1=O,EC50,HEK293 [1],4.77 µM (active)
same,IC50,HEK293 [2],5.85 µM (active)
same,IC50,HEK293 [3],13.5 µM (active)
same,IC50,HEK293 [4],6.57 µM (active)
same,AC50,[5],3.46 µM (active)
same,AC50,[6],43.6 µM (active)
same,AC50,[7],4.04 µM (active)
O=C(NNS(=O)(=O)c1ccc(Cl)cc1)c1cc(-c2ccccc2)nc2ccccc12,IC50,Aminopeptidase N,36.5 µM (active)
COc1ccccc1N1CCN(C(c2cccs2)c2nnnn2C2CCCC2)CC1 (stereo unspecified),EC50,[8],6.33 µM (active)
O=C(N/N=C1\CCC\C1=C(/O)C(F)(F)F)c1cccc(O)c1,CC50,[9],32.2 µM (active)
CN1C(=O)CC(c2ccco2)Sc2ccccc21 (stereo unspecified),IC50,[10],> 80 µM (inactive)
CC12CCC(C/C1=N\NC1=NC(=O)/C(=C\c3cccc(Br)c3)S1)C2(C)C (stereo unspecified),EC50,[11],0.343 µM (active)
same,CC50,[9],> 40 µM (active)
same,EC50,Streptokinase A,> 150 µM (not active)
same,EC50,Streptococcus,2.89 µM (active)
same,AC50,[12],1.95 µM (active)
c1ccc(CCNc2ncnc3ccccc23)cc1,IC50,[10],> 80 µM (inactive)
same,AC50,INS1,1.05 µM (active)
O=C(O)C1CCN(c2c([N+](=O)[O-])cc(C(F)(F)F)cc2[N+](=O)[O-])CC1,AC50,Cytochrome P450 2C19,14.1 µM (inconclusive)
same,AC50,Cytochrome P450 2C9,35.5 µM (inconclusive)
same,AC50,Cytochrome P450 2D6 [13],inconclusive
CC1CCN(C(=O)CCCOc2cc(=O)n(C)c3ccccc23)CC1,IC50,[10],> 80 µM (inactive)
O=C(NCc1ccc2c(c1)OCO2)c1cc([N+](=O)[O-])ccc1N1CCOCC1,IC50,[14],> 80 µM (inactive)
same,IC50,Fatty acid synthase [15],11.5 µM (active)
same,IC50,Fatty acid synthase [16],8.35 µM (active)
CCCn1nnnc1NC(=O)COc1ccc(Cl)cc1C,CC50,[9],34.5 µM (active)
same,AC50,Cytochrome P450 2D6 [17],25.1 µM (inconclusive)
CCN1C(=O)[C@H]2[C@@H]3[C@H](O)C=CC(=O)[C@H]3CC[C@H]2C1=O,AC50,Cytochrome P450 2D6 [13],inconclusive
COc1cc(C(=O)NC(=S)Nc2ccc3oc(=O)ccc3c2)cc(OC)c1OC,AC50,Cytochrome P450 2D6 [13],inconclusive
COc1ccc(C(C(=O)NC2CCCCC2)N(C(=O)c2sc(C)nc2C)c2ccc(C(C)=O)cc2)cc1 (stereo unspecified),AC50,Cytochrome P450 2D6 [13],inconclusive
N=C(N)Nc1nc(-c2ccccc2)c2ccccc2n1,EC50,[18],0.142 µM (active)
same,EC50,[19],> 60 µM (not active)
same,CC50,[20],21.2 µM (active)
same,IC50,cells,34.5 µM (active)
same,AC50,[21],16.6 µM (active)
CCOC(=O)c1cnc2c(C(F)(F)F)cccc2c1N1CCOCC1,IC50,[22],13.5 µM (active)
Nc1ccc(N=Nc2ccccc2O)c(N)c1,CC50,[9],> 40 µM (active)
O=S(=O)(Nc1nc2cc3c(cc2nc1Cl)OCCO3)c1ccccc1,IC50,Aminopeptidase N,66.8 µM (active)
COCCn1c(C)cc2c(c1=O)C(c1ccccc1F)C(C#N)=C(N)O2 (stereo unspecified),AC50,Cytochrome P450 2C9,17.8 µM (inconclusive)
same,AC50,Cytochrome P450 2D6 [13],inconclusive
